Data set [1] can be described thus: Measurement of particle size and polydispersity index of lipid particles (Zetasizer Nano ZS). It is filed as physicochemical. The following applies: siRNA-containing lipid particles made with the named phospholipid A, phospholipid B and cholesterol; for PDI / Particle size (nm): diluted 50-fold with RNase-free water. Here is the method: (§1) siRNA was added to 1 mM citrate buffer (pH 4.0), thereby preparing an acidic aqueous solution of siRNA (25° C., siRNA concentration: 301.2 nM). Separately, lipids were added to ethanol, thereby preparing a phospholipid alcohol solution (25° C., lipid concentration: 2.5 mM). The molar ratios of lipids were (1) DHSM-DEDA:DHSM:cholesterol (Chol)=45:10:45, (2) DHSM-PPZ:DOPC:cholesterol (Chol)=45:10:60, and (3) DOP-DEDA:DPPC:cholesterol (Chol)=45:10:45. A 4.15-fold volume of the acidic aqueous solution of siRNA was added to the phospholipid alcohol solution (siRNA/lipid molar ratio=1/7000), and a microchannel (KeyChem-Basic, YMC Co., Ltd.) was used to obtain lipid particles. Finally, ethanol was removed by dialysis.
The lipid particles were diluted 50-fold with RNase-free water, and then the particle size and polydispersity index (PDI) were measured with a Zetasizer Nano ZS (Malvern). The lipid particles were also diluted 50-fold with a buffer (pH=4.0, 5.0, 6.0, or 7.0), and the ζ-potential was then measured.

Data set [2] in a line: siRNA encapsulation efficiency of lipid particles (RiboGreen reagent). The class given is physicochemical. Conditions: siRNA-containing lipid particles made with the named phospholipid A; siRNA/lipid molar ratio 1/7000; with or without 2% Triton-X 100. Here is the method:
as §1
Further, the encapsulation efficiency of siRNA was measured in the following manner. The measurement was performed using an RNA assay reagent (RiboGreen reagent, Thermo Fisher Scientific), specifically as described below. […] The plate was shaken for 5 minutes, and the fluorescence intensity in each well was measured. The encapsulation efficiency of siRNA in the lipid particles was calculated using the following equation: the encapsulation efficiency (%)=(the fluorescence intensity of total siRNA−the fluorescence intensity of free siRNA)/(the fluorescence intensity of total siRNA), with the measured fluorescence intensity.

Consider `CCCCCCCCCCCCCCCCCC(=O)N[C@@H](COP(=O)(O)OCCNCCN)[C@H](O)CCCCCCCCCCCCCCC` [DHSM-DEDA, (2S,3R)-3-hydroxy-2-stearamidooctadecyl (2-(2′-aminoethylenamine)ethyl) phosphate], for which, in data set [1], the Particle size distribution result is reported as “Double peak”, the PDI stood at 0.09 ± 0.03 and the “Particle size (nm)” value is recorded as 132 ± 37 nm.
In the case of “(2S,3R)-3-hydroxy-2-stearamidooctadecyl (2-(piperazino)ethyl) phosphate [DHSM-PPZ]”, in data set [1], the Particle size distribution result is given as “Double peak”, the PDI is recorded as 0.16 ± 0.01 and the “Particle size (nm)” value is 111 ± 4 nm. Further, in data set [2], the “siRNA encapsulation efficiency (%)” value is 80 ± 7%.
For “Dioleoylphosphate-Diethylenediamine Conjugate [DOP-DEDA, reference compound]”, in data set [1], the Particle size distribution result is reported as “Single peak”, the PDI is recorded as 0.11 ± 0.06 and the “Particle size (nm)” value was found to be 100 ± 3 nm. Moreover, the “siRNA encapsulation efficiency (%)” value in data set [2] is reported as 98 ± 7%.

Values taken from patent US12565510B2, “Phospholipid” (NIPPON FINE CHEMICAL CO., LTD., priority 2021, dated 2026).
